US7632505B2, “Treatment of macrophage mediated disease” (Purdue Research Foundation, priority 2001, dated 2009)

Experiments:
activated macrophages = experiment: Biodistribution analysis (gamma counting of harvested tissues) in arthritic rats; type: in vivo, rat; conditions: FF 2000 nmoles/kg days 1,2,3,9,11,14 or MTX 0.15 mg days 1,8,15
Description: Arthritis was induced in 150-200 g female Lewis rats (Charles River Laboratories, Inc., Wilmington, Mass.), n=4/dose group. Briefly, 0.5 mg of heat-killed Mycoplasma butericum, suspended in mineral oil (5 mg/ml), was injected on day 0 into the left hind foot of rats following anesthesia with ketamine and xylazine. Disease was allowed to progress for 21 days, and animals were weighed on a daily basis to ensure the status of their health. […] All rats were maintained on a folate-deficient diet (DYETS, Inc., Bethlehem, Pa.) for 3 weeks prior to administration of folate-FITC in order to lower serum folate levels to physiologically relevant concentrations. Control rats were also maintained on a folate-deficient diet but not induced to develop arthritis.
Seventeen days following induction of the arthritis and three days prior to administration of the imaging agent (EC20), rats destined for macrophage depletion received a single intraperitoneal injection of clodronate liposomes containing 20 mg clodronate. […]
For biodistribution analysis, rats were euthanized by intraperitoneal injection of nebutal or pentobarbitol sodium. Liver, spleen, heart, lungs, intestine, and kidneys were then harvested and radiation in each tissue was determined by counting in a gamma counter (Packard BioScience Co., Meridian, Conn.).

[1] = system: adjuvant-induced arthritis in rats; experiment: Adjuvant-induced arthritis, paw swelling (immunotherapy mediated protection); type: in vivo, rat; conditions: for inhibition of adjuvant-induced arthritis, left and right paw: Example 14, folate-FITC 3000 nmoles/kg per day, days 1,2,3, osmotic pump, MTX 0.15 mg ip days 1,8,15
Description: Arthritis was induced in 150-200 g female Lewis rats (Charles River Laboratories, Inc., Wilmington, Mass.), n=4/dose group. Briefly, 0.5 mg of heat-killed Mycoplasma butericum, suspended in mineral oil (5 mg/ml), was injected on day 0 into the left hind foot of rats following anesthesia with ketamine and xylazine. Disease was allowed to progress for 21 days, and animals were weighed on a daily basis to ensure the status of their health. […] Control rats were also maintained on a folate-deficient diet but not induced to develop arthritis.
The efficacy of a folate-FITC conjugate (folate-fluorescein isothiocyanate conjugate) against adjuvant-induced arthritis in rats was investigated. Each rat used in the experiment was immunized at the base of the tail with FITC-KLH (150 μg) to induce antibodies against FITC on days −38 and −10 before administration of Mycoplasma butericum (adjuvant) to induce arthritis. The immunization of FITC-KLH was done in combination with an adjuvant (i.e., such as TITERMAX® GOLD (150 μg), Alum (150 μg), or GPI-100 (150 μg) which are all adjuvants to induce antibodies against FITC as opposed to the adjuvant used to induce arthritis). The immunized animals were then injected on day 0 in the left foot pad with 0.5 mg of heat-killed Mycoplasma butyricum (adjuvant) to initiate development of arthritis. Then on days 1, 2, 3, 9, 11, and 14, post-adjuvant (Mycoplasma butyricum) injection, the rats were injected intraperitoneally with either saline (control rats) or 2000 nmoles/kg of folate-FITC (FF). Calipers were used to measure left and right foot dimensions daily.
Methotrexate (MTX) was administered at a dose of 0.15 mg by intraperitoneal injection one time per day on days 1, 8, and 15 after adjuvant administration. MTX was used in place of folate-FITC for animals treated with MTX.
Other animals were treated with 0.75 mg of MTX (FF+mid) or 1.5 mg of MTX (FF+high).

[2] = system: tissue infiltrating neutrophils
From the text: (§1) Using an antibody specific for granulocytes, we also examined whether tissue infiltrating neutrophils might take up folate conjugates.

[3] = system: Mac-1+ peripheral blood cells
From the text: as §1

liver macrophages = experiment: Flow cytometry of folate-FITC binding to disaggregated liver cells (ED2 macrophage marker); type: cell-based, rat
From the text: The protocols described in Examples 2, 4, 6 and 7 were used. To further confirm that the elevated uptake of EC20 in livers of arthritic rats is due to a macrophage population, livers were resected from collagenase-perfused rats and their disaggregated cells examined for folate conjugate uptake, using folate-FITC as a fluorescent marker for FR expression.

[4] = Example 8, 2000 nmoles/kg ip days 1,2,3,9,11,14, FITC-immunized rats

Row | SMILES | effect of treatment on EC20 organ uptake (activated macrophages) | inhibition of adjuvant-induced arthritis, left and right paw [1] | binding to liver neutrophils [2] | binding to Mac-1+ peripheral blood cells [3] | activated macrophages invading feet after about 10 days (foot dimensions) [1, 4] | early (neutrophil) phase of paw swelling of adjuvant-injected feet [1, 4] | prolonged treatment vs 3 initial doses ([1]; Example 15, 3000 nmoles/kg, days 1,2,3,9,11,14 vs days 1,2,3) | inhibition of adjuvant-induced arthritis, right (uninjected) paw volume ([1]; Example 15, FF 3000, 600 and 120 nmoles/kg) | binding in presence of excess free folic acid (liver macrophages; 1 mM folic acid) | liver macrophages that bound folate-FITC (liver macrophages; arthritic rats, 1 μM folate-FITC) [%] | FITC intensity of arthritic macrophages (liver macrophages; vs macrophages from healthy livers)
1 | CN(Cc1cnc2nc(N)nc(N)c2n1)c1ccc(C(=O)N[C@@H](CCC(=O)O)C(=O)O)cc1 [MTX, Methotrexate, reference compound] | prevent EC20 uptake in all organs examined except the kidney | inhibits adjuvant-induced arthritis as well as MTX | – | – | – | – | – | – | – | – | –
2 | Nc1nc2ncc(CNc3ccc(C(=O)NC(CCC(=O)NCCNC(=S)Nc4ccc(C(=O)O)c(-c5c6ccc(=O)cc-6oc6cc(O)ccc56)c4)C(=O)O)cc3)nc2c(=O)[nH]1 (stereo not shown) [folate-FITC, folate-fluorescein isothiocyanate] | prevent EC20 uptake in all organs examined except the kidney | inhibits adjuvant-induced arthritis as well as MTX | no binding capacity | no binding affinity | eliminated or reduced | no impact on this phase of paw swelling | prolonged treatment with FF is more effective than 3 initial doses | inhibits adjuvant-induced arthritis in the right paw | suppressed | 70 | higher than that of macrophages from healthy livers
